From PubChem BioAssay AID2060619 (Molecular Pharmacology Branch, DTP, NCI, 2025)

System: 323965-272-R-J2-PDC complex spheroid viability
Experiment: Anticancer human tumor 323965-272-R-J2-PDC patient-derived pancreatic carcinoma cell line growth inhibition [CLK]
Details: for IC50: curve of first compound; for viability, T/C: stronger effect = lower value
How it was run: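 Patient-derived tumor cells grown as complex spheroids with HUVEC endothelial cells and mesenchymal stem cells, treated with drug combinations. Concentrations descend in half-log steps from near clinical Cmax, or from 10 microM if Cmax unknown.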

[1] = second compound 0.0316 µM, first compound 0.0316 µM
[2] = second compound 0.0316 µM, first compound 0.1 µM
[3] = second compound 0.1 µM, first compound 0.0316 µM
[4] = second compound 0.1 µM, first compound 0.1 µM
[5] = second compound 0.316 µM, first compound 0.0316 µM
[6] = second compound 0.316 µM, first compound 0.1 µM
[7] = second compound 1 µM, first compound 0.0316 µM
[8] = second compound 1 µM, first compound 0.1 µM
[9] = second compound 3.16 µM, first compound 0.0316 µM
[10] = second compound 3.16 µM, first compound 0.1 µM
[11] = second compound 10 µM, first compound 0.0316 µM
[12] = second compound 10 µM, first compound 0.1 µM
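Further: spheroids exposed to agents for seven days before readout.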
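Wherever viability, T/C is given: percent of DMSO vehicle control wells so 100% = untreated growth.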

`Cn1ncnc1[C@H]1c2n[nH]c(=O)c3cc(F)cc(c23)N[C@@H]1c1ccc(F)cc1` + CN1CCN(c2cc(C(=O)Nc3cc4cc(-c5cnn(C)c5)ccc4cn3)ccn2)CC1 showed an IC50 (second compound 0.0316 µM) of over 0.1 µM, an IC50 (second compound 0.1 µM) of over 0.1 µM and an IC50 (second compound 0.316 µM) of under 0.000316 µM. The IC50 (second compound 1 µM) was under 0.000316 µM, the IC50 (second compound 3.16 µM) was under 0.000316 µM and the IC50 (second compound 10 µM) was under 0.000316 µM. The viability, T/C (second compound 0.0316 µM, first compound 0.000316 µM) was 96.1%, the viability, T/C (second compound 0.0316 µM, first compound 0.001 µM) was 96% and the viability, T/C (second compound 0.0316 µM, first compound 0.00316 µM) was 90%. For the same compound, the viability, T/C (second compound 0.0316 µM, first compound 0.01 µM) was 93.3%, the viability, T/C [1] was 97% and the viability, T/C [2] was 68.3%. The viability, T/C (second compound 0.1 µM, first compound 0.000316 µM) was 67.6%, the viability, T/C (second compound 0.1 µM, first compound 0.001 µM) was 65.7% and the viability, T/C (second compound 0.1 µM, first compound 0.00316 µM) was 61.6%. The viability, T/C (second compound 0.1 µM, first compound 0.01 µM) was 74%, the viability, T/C [3] was 61.1% and the viability, T/C [4] was 46.1%. The viability, T/C (second compound 0.316 µM, first compound 0.000316 µM) was 23.8%, the viability, T/C (second compound 0.316 µM, first compound 0.001 µM) was 26.9% and the viability, T/C (second compound 0.316 µM, first compound 0.00316 µM) was 23%. The viability, T/C (second compound 0.316 µM, first compound 0.01 µM) was 27.9%, the viability, T/C [5] was 24.6% and the viability, T/C [6] was 21.8%. For the same compound, the viability, T/C (second compound 1 µM, first compound 0.000316 µM) was 2.64%, the viability, T/C (second compound 1 µM, first compound 0.001 µM) was 3.21% and the viability, T/C (second compound 1 µM, first compound 0.00316 µM) was 3.5%. It also gave a viability, T/C (second compound 1 µM, first compound 0.01 µM) of 2.88%, a viability, T/C [7] of 5.47% and a viability, T/C [8] of 3.21%. The viability, T/C (second compound 3.16 µM, first compound 0.000316 µM) was 4.62%, the viability, T/C (second compound 3.16 µM, first compound 0.001 µM) was 3.78% and the viability, T/C (second compound 3.16 µM, first compound 0.00316 µM) was 5.87%. It also gave a viability, T/C (second compound 3.16 µM, first compound 0.01 µM) of 3.77%, a viability, T/C [9] of 4.01% and a viability, T/C [10] of 4.38%. The viability, T/C (second compound 10 µM, first compound 0.000316 µM) was 4.34%, the viability, T/C (second compound 10 µM, first compound 0.001 µM) was 4.75% and the viability, T/C (second compound 10 µM, first compound 0.00316 µM) was 6.41%. It also gave a viability, T/C (second compound 10 µM, first compound 0.01 µM) of 4.13%, a viability, T/C [11] of 4.28% and a viability, T/C [12] of 4.85%.
`CC(CO)NC(=O)c1cc(-c2ccc(Cl)cc2)nn(-c2cnn(C)c2)c1=O` (centres undefined) + CNC(=O)c1ccc(Nc2nc(OC3CCCC3)c3c(-c4ccc5nc(C)oc5c4)c[nH]c3n2)c(OC)c1 gave an IC50 (second compound 0.0316 µM) of over 10 µM, an IC50 (second compound 0.1 µM) of over 10 µM and an IC50 (second compound 0.316 µM) of over 10 µM. The IC50 (second compound 1 µM) was under 0.0316 µM, the IC50 (second compound 3.16 µM) was under 0.0316 µM and the IC50 (second compound 10 µM) was under 0.0316 µM. It also gave a viability, T/C [1] of 122%, a viability, T/C [2] of 85.6% and a viability, T/C (second compound 0.0316 µM, first compound 0.316 µM) of 100%. For the same compound, the viability, T/C (second compound 0.0316 µM, first compound 1 µM) was 101%, the viability, T/C (second compound 0.0316 µM, first compound 3.16 µM) was 102% and the viability, T/C (second compound 0.0316 µM, first compound 10 µM) was 103%. The viability, T/C [3] was 81.2%, the viability, T/C [4] was 80.5% and the viability, T/C (second compound 0.1 µM, first compound 0.316 µM) was 76.5%. The viability, T/C (second compound 0.1 µM, first compound 1 µM) was 73.7%, the viability, T/C (second compound 0.1 µM, first compound 3.16 µM) was 76.9% and the viability, T/C (second compound 0.1 µM, first compound 10 µM) was 72.1%. It also gave a viability, T/C [5] of 60%, a viability, T/C [6] of 67.4% and a viability, T/C (second compound 0.316 µM, first compound 0.316 µM) of 67.1%. The viability, T/C (second compound 0.316 µM, first compound 1 µM) was 57.8%, the viability, T/C (second compound 0.316 µM, first compound 3.16 µM) was 61% and the viability, T/C (second compound 0.316 µM, first compound 10 µM) was 53.4%. It also gave a viability, T/C [7] of 50.8%, a viability, T/C [8] of 41.2% and a viability, T/C (second compound 1 µM, first compound 0.316 µM) of 42.2%. For the same compound, the viability, T/C (second compound 1 µM, first compound 1 µM) was 51.1%, the viability, T/C (second compound 1 µM, first compound 3.16 µM) was 51.6% and the viability, T/C (second compound 1 µM, first compound 10 µM) was 48.7%. It also gave a viability, T/C [9] of 41.8%, a viability, T/C [10] of 42.5% and a viability, T/C (second compound 3.16 µM, first compound 0.316 µM) of 40.1%. For the same compound, the viability, T/C (second compound 3.16 µM, first compound 1 µM) was 35.5%, the viability, T/C (second compound 3.16 µM, first compound 3.16 µM) was 44.4% and the viability, T/C (second compound 3.16 µM, first compound 10 µM) was 47.1%. For the same compound, the viability, T/C [11] was 43.2%, the viability, T/C [12] was 40.4% and the viability, T/C (second compound 10 µM, first compound 0.316 µM) was 36.8%. The viability, T/C (second compound 10 µM, first compound 1 µM) was 43.1%, the viability, T/C (second compound 10 µM, first compound 3.16 µM) was 41.5% and the viability, T/C (second compound 10 µM, first compound 10 µM) was 41.4%.
